Results reported in the NIST ThermoML archive (doi:10.1021/acs.jced.5b00623).
Several values for one entry are separate records, joined by “and”; a condition that tells them apart may be missing. Equal entries are not always repeated.

Conditions: for vapor or sublimation pressure: Closed cell (Static) method

O=C(C(F)(F)C(F)(F)F)C(F)(C(F)(F)F)C(F)(F)F [dodecafluoro-2-methylpentan-3-one]
Conditions | mass density [kg/m3] | speed of sound [m/s]
225.01 K, 992.5 kPa, Liquid, Buoyancy - hydrostatic balance with magnetic suspension - two sinkers | 1809.67 | –
225.01 K, 6306.6 kPa, Liquid, Buoyancy - hydrostatic balance with magnetic suspension - two sinkers | 1821.02 | –
235 K, 11155 kPa, Liquid, Buoyancy - hydrostatic balance with magnetic suspension - two sinkers | 1806.22 | –
240 K, 16200 kPa, Liquid, Buoyancy - hydrostatic balance with magnetic suspension - two sinkers | 1804.64 | –
245 K, 21227 kPa, Liquid, Buoyancy - hydrostatic balance with magnetic suspension - two sinkers | 1803.18 | –
250 K, 26208 kPa, Liquid, Buoyancy - hydrostatic balance with magnetic suspension - two sinkers | 1801.77 | –
260 K, 1145.1 kPa, Liquid, Buoyancy - hydrostatic balance with magnetic suspension - two sinkers | 1716.09 | –
260 K, 6242.2 kPa, Liquid, Buoyancy - hydrostatic balance with magnetic suspension - two sinkers | 1731.21 | –
260 K, 12122 kPa, Liquid, Buoyancy - hydrostatic balance with magnetic suspension - two sinkers | 1746.98 | –
260 K, 18392 kPa, Liquid, Buoyancy - hydrostatic balance with magnetic suspension - two sinkers | 1762.27 | –
260 K, 27930 kPa, Liquid, Buoyancy - hydrostatic balance with magnetic suspension - two sinkers | 1783.14 | –
260 K, 36060 kPa, Liquid, Buoyancy - hydrostatic balance with magnetic suspension - two sinkers | 1799.13 | –
270 K, 8922.2 kPa, Liquid, Buoyancy - hydrostatic balance with magnetic suspension - two sinkers | 1713.2 | –
275 K, 12791 kPa, Liquid, Buoyancy - hydrostatic balance with magnetic suspension - two sinkers | 1711.88 | –
278.15 K, 83 kPa, Liquid, Vibrating tube method | 1660.83 | –
280 K, 16636 kPa, Liquid, Buoyancy - hydrostatic balance with magnetic suspension - two sinkers | 1710.6 | –
283.15 K, 83 kPa, Liquid, Vibrating tube method | 1646.79 | –
285 K, 20456 kPa, Liquid, Buoyancy - hydrostatic balance with magnetic suspension - two sinkers | 1709.38 | –
288.15 K, 83 kPa, Liquid, Vibrating tube method | 1632.33 | –
290 K, 24255 kPa, Liquid, Buoyancy - hydrostatic balance with magnetic suspension - two sinkers | 1708.2 | –
293.15 K, 83 kPa, Liquid, Vibrating tube method | 1617.51 | –
295 K, 28026 kPa, Liquid, Buoyancy - hydrostatic balance with magnetic suspension - two sinkers | 1707.06 | –
298.15 K, 83 kPa, Liquid, Vibrating tube method | 1602.48 | –
303 K, 1007.3 kPa, Liquid, Buoyancy - hydrostatic balance with magnetic suspension - two sinkers | 1592.53 | –
303 K, 1089 kPa, Liquid, Buoyancy - hydrostatic balance with magnetic suspension - two sinkers | 1592.94 | –
303 K, 5959.8 kPa, Liquid, Buoyancy - hydrostatic balance with magnetic suspension - two sinkers | 1615.54 | –
303 K, 6069.2 kPa, Liquid, Buoyancy - hydrostatic balance with magnetic suspension - two sinkers | 1616.01 | –
303 K, 12121 kPa, Liquid, Buoyancy - hydrostatic balance with magnetic suspension - two sinkers | 1639.93 | –
303 K, 22348 kPa, Liquid, Buoyancy - hydrostatic balance with magnetic suspension - two sinkers | 1673.62 | –
303 K, 28346 kPa, Liquid, Buoyancy - hydrostatic balance with magnetic suspension - two sinkers | 1690.63 | –
303 K, 33973 kPa, Liquid, Buoyancy - hydrostatic balance with magnetic suspension - two sinkers | 1705.21 | –
303.15 K, 83 kPa, Liquid, Vibrating tube method | 1587.28 | –
308.15 K, 83 kPa, Liquid, Vibrating tube method | 1571.82 | –
310 K, 4843.5 kPa, Liquid, Buoyancy - hydrostatic balance with magnetic suspension - two sinkers | 1590.92 | –
318 K, 9214.8 kPa, Liquid, Buoyancy - hydrostatic balance with magnetic suspension - two sinkers | 1589.2 | –
318 K, 9295.7 kPa, Liquid, Buoyancy - hydrostatic balance with magnetic suspension - two sinkers | 1589.59 | –
324.97 K, 65.34 kPa, Gas, Spherical resonator | – | 90.45
324.97 K, 82.58 kPa, Gas, Spherical resonator | – | 89.49
324.97 K, 100.55 kPa, Gas, Spherical resonator | – | 88.41
324.97 K, 100.57 kPa, Gas, Spherical resonator | – | 88.41
324.97 K, 100.58 kPa, Gas, Spherical resonator | – | 88.41
326.01 K, 13558 kPa, Liquid, Buoyancy - hydrostatic balance with magnetic suspension - two sinkers | 1587.57 | –
334.01 K, 17866 kPa, Liquid, Buoyancy - hydrostatic balance with magnetic suspension - two sinkers | 1585.99 | –
334.02 K, 17984 kPa, Liquid, Buoyancy - hydrostatic balance with magnetic suspension - two sinkers | 1586.44 | –
340 K, 1091.8 kPa, Liquid, Buoyancy - hydrostatic balance with magnetic suspension - two sinkers | 1474.85 | –
340 K, 4035.6 kPa, Liquid, Buoyancy - hydrostatic balance with magnetic suspension - two sinkers | 1497.23 | –
340 K, 7986.5 kPa, Liquid, Buoyancy - hydrostatic balance with magnetic suspension - two sinkers | 1522.5 | –
340 K, 11938 kPa, Liquid, Buoyancy - hydrostatic balance with magnetic suspension - two sinkers | 1544.06 | –
340 K, 16171 kPa, Liquid, Buoyancy - hydrostatic balance with magnetic suspension - two sinkers | 1564.25 | –
340 K, 21184 kPa, Liquid, Buoyancy - hydrostatic balance with magnetic suspension - two sinkers | 1585.31 | –
342.01 K, 22145 kPa, Liquid, Buoyancy - hydrostatic balance with magnetic suspension - two sinkers | 1584.49 | –
349.97 K, 150.02 kPa, Gas, Spherical resonator | – | 90.93
349.97 K, 191.77 kPa, Gas, Spherical resonator | – | 88.85
349.98 K, 61.83 kPa, Gas, Spherical resonator | – | 94.86
349.98 K, 106.24 kPa, Gas, Spherical resonator | – | 92.93
350 K, 53.94 kPa, Gas, Spherical resonator | – | 95.2
350 K, 104.66 kPa, Gas, Spherical resonator | – | 93
350 K, 152.11 kPa, Gas, Spherical resonator | – | 90.82
350 K, 191.03 kPa, Gas, Spherical resonator | – | 88.88
350 K, 26385 kPa, Liquid, Buoyancy - hydrostatic balance with magnetic suspension - two sinkers | 1583.04 | –
360 K, 1009.8 kPa, Liquid, Buoyancy - hydrostatic balance with magnetic suspension - two sinkers | 1401.62 | –
360 K, 6002.5 kPa, Liquid, Buoyancy - hydrostatic balance with magnetic suspension - two sinkers | 1449.57 | –
360 K, 8915.5 kPa, Liquid, Buoyancy - hydrostatic balance with magnetic suspension - two sinkers | 1471.34 | –
360 K, 11021 kPa, Liquid, Buoyancy - hydrostatic balance with magnetic suspension - two sinkers | 1485.32 | –
360 K, 16073 kPa, Liquid, Buoyancy - hydrostatic balance with magnetic suspension - two sinkers | 1514.43 | –
360 K, 21146 kPa, Liquid, Buoyancy - hydrostatic balance with magnetic suspension - two sinkers | 1539.18 | –
360 K, 31620 kPa, Liquid, Buoyancy - hydrostatic balance with magnetic suspension - two sinkers | 1581.19 | –
370 K, 4182.9 kPa, Liquid, Buoyancy - hydrostatic balance with magnetic suspension - two sinkers | 1400.06 | –
375.01 K, 57.06 kPa, Gas, Spherical resonator | – | 98.91
375.01 K, 123.45 kPa, Gas, Spherical resonator | – | 96.64
375.01 K, 220.4 kPa, Gas, Spherical resonator | – | 93.07
375.01 K, 316.42 kPa, Gas, Spherical resonator | – | 89.11
380 K, 7353.3 kPa, Liquid, Buoyancy - hydrostatic balance with magnetic suspension - two sinkers | 1398.51 | –
380.04 K, 16688 kPa, Liquid, Buoyancy - hydrostatic balance with magnetic suspension - two sinkers | 1468.1 | –
385.99 K, 9254.1 kPa, Liquid, Buoyancy - hydrostatic balance with magnetic suspension - two sinkers | 1397.63 | –
393.98 K, 11788 kPa, Liquid, Buoyancy - hydrostatic balance with magnetic suspension - two sinkers | 1396.48 | –
400 K, 2018.5 kPa, Liquid, Buoyancy - hydrostatic balance with magnetic suspension - two sinkers | 1244.05 | –
400 K, 3987.4 kPa, Liquid, Buoyancy - hydrostatic balance with magnetic suspension - two sinkers | 1284.55 | –
400 K, 8129.1 kPa, Liquid, Buoyancy - hydrostatic balance with magnetic suspension - two sinkers | 1342.48 | –
400.01 K, 11999 kPa, Liquid, Buoyancy - hydrostatic balance with magnetic suspension - two sinkers | 1381.28 | –

83 kPa, Liquid, Frequency=3 MHz, Sing-around technique in a fixed-path interferometer
Conditions | speed of sound [m/s]
278.15 K | 567.88
283.15 K | 551.54
288.15 K | 535.45
293.15 K | 519.58
298.15 K | 503.72
303.15 K | 488.11
308.15 K | 472.63

Liquid
Conditions | vapor or sublimation pressure
324.96 K | 111.4 kPa and 111.4 kPa
324.97 K | 111.4 kPa and 111.3 kPa
324.98 K | 111.6 kPa
339.95 K | 180.3 kPa
349.99 K | 242.7 kPa
354.98 K | 278.7 kPa
370 K | 413.4 kPa
374.99 K | 467.9 kPa and 467.6 kPa
390.03 K | 663.7 kPa
